Results reported in patent US12396961B2, “Compounds and compositions for intracellular delivery of agents” (ModernaTX, Inc., priority 2015, dated 2025).

Tests used:
[1] = tested on: luciferase (Luc) mRNA expression; assay: Expression of Luc, bioluminescence (total flux) after intravenous administration to mice; format: in vivo; settings: for Total flux (Luc expression), comparison in words over the time points of the table named: mice i.v. 0.5 mg/kg, 3, 6, 24 hours; for Luc expression in mice compared with MC3 (Table 7a): in words
Method: In order to monitor how effectively various nanoparticle compositions deliver therapeutic and/or prophylactic agents to targeted cells, different nanoparticle compositions including a particular therapeutic and/or prophylactic agent (for example, a modified or naturally occurring RNA such as an mRNA) are prepared and administered to rodent populations. Mice are intravenously, intramuscularly, intraarterially, or intratumorally administered a single dose including a nanoparticle composition with a formulation such as those provided in Table 1. In some instances, mice may be made to inhale doses. Dose sizes may range from 0.001 mg/kg to 10 mg/kg, where 10 mg/kg describes a dose including 10 mg of a therapeutic and/or prophylactic agent in a nanoparticle composition for each 1 kg of body mass of the mouse. A control composition including PBS may also be employed.
Upon administration of nanoparticle compositions to mice, dose delivery profiles, dose responses, and toxicity of particular formulations and doses thereof can be measured by enzyme-linked immunosorbent assays (ELISA), bioluminescent imaging, or other methods. For nanoparticle compositions including mRNA, time courses of protein expression can also be evaluated. Samples collected from the rodents for evaluation may include blood, sera, and tissue (for example, muscle tissue from the site of an intramuscular injection and internal tissue); sample collection may involve sacrifice of the animals.
The efficacy of the nanoparticle compositions presented in Tables 1, la, 17-1, 19-1, 20-1 and 21-1 was evaluated with a bioluminescence study. Formulations were administered intravenously to mice (n=6) at a dosage of 0.5 mg/kg (mpk) and bioluminescence measured at 3, 6, and 24 hour time points. The standard MC3 formulation and a PBS control were evaluated for comparison.

[2] = tested on: luciferase (Luc) mRNA expression; assay: Luc expression (AUC) in CD-1 mice relative to MC3; format: in vivo; settings: for Lipid/MC3 AUC CD-1 mice 0.5 mpk: Table 7b, Luc expression; for Lipid/MC3 Luc CD-1 (mice): Luc expression relative to MC3, CD-1 mice
Method: FIG. 15 is a graph summarizing luciferase expression levels at 6 h after administration of nanoparticle compositions containing compounds of the disclosure to CD-1 mice at a dose of 0.5 mpk. Total light flux values were acquired via body luminescent imaging (BLI) 6 h after administration. In this Figure, the numbers 1-7 and 10 refer to the compositions containing Compounds 4-10 and MC3 respectively.
In contrast, hEPO expression in rats induced by administration of nanoparticle composition including compound according to one of formulae (I), (Ia1)-(Ia6), (Ib), (II), (IIa), (III), and (IIIa) was substantially lower than that measured for MC3. […] Table 7c and 7d show additional protein expressions and clearance data from compositions with various compounds disclosed herein as compared to with MC3.

[3] = Lipid clearance: % dose remaining in mice (liver) 6 h and 24 h after administration of nanoparticle compositions; format: in vivo, CD-1 mice; settings: Table 7c, 24 hr; species not given
[4] = tested on: LDLr mRNA / Luc expression; assay: Expression (AUC) in LDLr−/− mice relative to KL22; format: in vivo; settings: Table 7b
[5] = Particle size and polydispersity index (Zetasizer Nano ZS); format: physicochemical
Outline: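 Particle size and polydispersity index were measured by dynamic light scattering on a Zetasizer Nano ZS in 1×PBS. Zeta potential was measured in 15 mM PBS.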

[6] = tested on: hEPO mRNA expression; assay: Expression of hEPO in mice (CD-1); format: in vivo, CD-1 mice; settings: for Lipid/MC3 AUC: Table 7e, hEPO expression, CD-1 mice, 0.5 mpk
From the text: FIG. 12 is a set of graphs illustrating hEPO expression levels in CD-1 mice dosed with compounds of the disclosure, compared to MC3. PBS is used as control. […] In graphs A-C numbers 1-14 refer to compositions containing the following: 1: Compound 73, 2: Compound 80, 3: Compound 70; 4: Compound 81; 5: Compound 69; 6: Compound 82; 7: Compound 83; 8: Compound 62; 9: Compound 84; 10: Compound 85; 11: Compound 86; 12: Compound 87; 13: MC3; 14: PBS.
FIG. 13 is a graph showing hEPO levels (pg/mL) in CD-1 mice up to −25 h after administration of a nanoparticle composition containing compounds of the disclosure, compared to a composition containing MC3. Numbers 1-13 refer to compositions containing the following: 1: Compound 73, 2: Compound 80, 3: Compound 70; 4: Compound 81; 5: Compound 69; 6: Compound 82; 7: Compound 83; 8: Compound 62; 9: Compound 84; 10: Compound 85; 11: Compound 86; 12: Compound 87; 13: MC3. […]

[7] = tested on: hEPO mRNA expression; assay: Expression of hEPO after intravenous administration to rats; format: in vivo; settings: rats i.v.; 3, 6, 24 hours
Method: PBS (phosphate buffered saline) is used as control.
Formulations were prepared according to Table 5 and included mRNA encoding hEPO.
[…] After the 48 hour time point, livers and spleens were harvested and frozen.

[8] = Table 1, DOPE 40:20:38.5:1.5, Luc mRNA

| PDI [5, 8] | Structure (SMILES) | Lipid/MC3 AUC CD-1 mice 0.5 mpk [2] | Lipid/KL22 AUC LDLr−/− mice 0.5 mpk, LDLr [4] | also measured |
| --- | --- | --- | --- | --- |
|  | CCCCC/C=C\C/C=C\CCCCCCCCN(CCO)CCCCCCCCCCCC [Compound 17-4, 2-(Dodecyl((9Z,12Z)-octadeca-9,12-dien-1-yl)amino)ethan-1-ol] |  |  | Total flux (Luc expression), comparison in words over the time points of the table named [1]: substantially higher flux than compositions including Compounds 17-2, 17-3, and 17-7 |
|  | CCCCCCCCCN(CCCOC(=O)CCCCC)CCC1CCN(C(=O)CN(CCCCCCCCC)CCN(CCCCCCCCC)CCCCCCCCC)CC1 [Compound 61, 3-((2-(1-(N-(2-(Dinonylamino)ethyl)-N-nonylglycyl)piperidin-4-yl)ethyl)(nonyl)amino)propyl Hexanoate] |  |  | Liver/Spleen Ratio ([2]; Table 7c): 30; Lipid/MC3 AUC ([2]; Table 7c, AUC relative to MC3): 3.27; % Dose Remaining 24 hr [3]: 0.13% |
| 0.130 | CCCCCCCCCCCCN(CCCCCCCCCCCC)CCN(CCCCCCCCCCCC)CC(=O)N1CCN(C(=O)CN(CCCCCCCCC)CCCCCCCCC)CC1 [Compound 7, 2-((2-(Didodecylamino)ethyl)(dodecyl)amino)-1-(4-(dinonylglycyl)piperazin-1-yl)ethan-1-one] | 1.51 | 2.46 |  |
|  | CCCCC/C=C\C/C=C\CCCCCCCCN(CCCCCCCC/C=C\C/C=C\CCCCC)CCN1CCN(CCCCCCCCCCCC)CC1 [Compound 19-6, (9Z,12Z)—N-(2-(4-Dodecylpiperazin-1-yl)ethyl)-N-((9Z,12Z)-octadeca-9,12-dien-1-yl)octadeca-9,12-dien-1-amine] |  |  | Total flux (Luc expression), comparison in words over the time points of the table named [1]: next highest flux |
| 0.008 | CCCCCCCCCCCCN(CCCCCCCCCCCC)CCN(CCCCCCCCCCCC)CCN1CCN(CCN(CCCCCC(=O)OCCCCC)CCCCCC(=O)OCCCCC)CC1 [Compound 14, Dipentyl 6,6′-((2-(4-(2-((2-(didodecylamino)ethyl)(dodecyl)amino)ethyl)piperazin-1-yl)ethyl)azanediyl)dihexanoate] |  |  | Luc expression in mice compared with MC3 (Table 7a) [1]: significantly lower; Lipid/MC3 Luc CD-1 (mice) [2]: 0.070 |
|  | CCCCCCCC/C=C\CCCCCCCCN(CCO)CCCCCCCC/C=C\CCCCCCCC [Compound 17-8, 2-(Di((Z)-octadec-9-en-1-yl)amino)ethan-1-ol] |  |  | Total flux (Luc expression), comparison in words over the time points of the table named [1]: substantially higher flux than compositions including Compounds 17-2, 17-3, and 17-7 |
| 0.140 | CCCCCCCCCCCCN(CCN(CCCCCCCCC)CCCCCCCCC)CC(=O)N1CCN(C(=O)CN(CCCCCCCCC)CCCCCCCCC)CC1 [Compound 5, 2-(Dinonylamino)-1-(4-(N-(2-(dinonylamino)ethyl)-N-dodecylglycyl)piperazin-1-yl)ethan-1-one] | 2.62 | 1.86 |  |
| 0.130 | CCCCCCCCCCCCN(CCCCCCCCCCCC)CCN(CCCCCCCCC)CC(=O)N1CCN(C(=O)CN(CCCCCCCCCCCC)CCCCCCCCCCCC)CC1 [Compound 10, 2-(Didodecylamino)-1-(4-(N-(2-(didodecylamino)ethyl)-N-nonylglycyl)piperazin-1-yl)ethan-1-one] | 1.14 | 0.71 |  |
|  | CCCCCCCCCN(CCCC(=O)OCCCCC)CCC1CCN(C(=O)CN(CCCCCCCCC)CCN(CCCCCCCCC)CCCCCCCCC)C1 (stereo not drawn) [Compound 81, Pentyl 4-((2-(1-(N-(2-(dinonylamino)ethyl)-N-nonylglycyl)pyrrolidin-3-yl)ethyl)(nonyl)amino)butanoate] |  |  | Lipid/MC3 AUC [6]: 3.01 |
|  | CCCCCCCCCCCCN(CCCCCCCCCCCC)CCN(CCCCCCCCCCCC)CCN1CCN(CCN(CCCCCCCCCCCC(=O)OC)CCCCCCCCCCCC(=O)OC)CC1 [Compound 16, Dimethyl 12,12′-((2-(4-(2-((2-(didodecylamino)ethyl)(dodecyl)amino)ethyl)piperazin-1-yl)ethyl)azanediyl)didodecanoate] |  |  | hEPO expression at each time point, comparison in words (Table 6) [7]: lowest hEPO expression; PDI ([5]; formulated with hEPO mRNA): 0.140 |
| 0.096 | CCCCCCCCCCCCN(CCCCCCCCCCCC)CCN(CCCCCCCCCCCC)CCN1CCN(CCN(CCCCCCCCCCCC)CCCCCC(=O)OCCCCC)CC1 [Compound 12, Pentyl 6-((2-(4-(2-((2-(didodecylamino)ethyl)(dodecyl)amino)ethyl)piperazin-1-yl)ethyl)(dodecyl)amino)hexanoate] |  |  | Luc expression in mice compared with MC3 (Table 7a) [1]: significantly lower; Lipid/MC3 Luc CD-1 (mice) [2]: 0.21; hEPO expression in mice compared with MC3 (Table 7a) ([6]; mice, in words): substantially higher |
| 0.160 | CCCCCCCCCCCCN(CCCCCCCCCCCC)CCN(CCCCCCCCC)CC(=O)N1CCN(C(=O)CN(CCCCCCCCC)CCCCCCCCC)CC1 [Compound 6, 2-((2-(Didodecylamino)ethyl)(nonyl)amino)-1-(4-(dinonylglycyl)piperazin-1-yl)ethan-1-one] | 1.72 | 0.37 |  |
|  | CCCCCCCCCN(CCCC(=O)OCCCCC)CCC(=O)N1CCN(C(=O)CCN(CCCCCCCCC)CCN(CCCCCCCCC)CCCCCCCCC)CC1 [Compound 62, Pentyl 4-((3-(4-(3-((2-(dinonylamino)ethyl)(nonyl)amino)propanoyl)piperazin-1-yl)-3-oxopropyl)(nonyl)amino)butanoate] |  |  | Lipid/MC3 AUC [6]: 0.97 |
|  | CCCCCCCCCCCCN(CCCCCCCCCCCC)CCN1CCNCC1 [Compound 19-2, N-Dodecyl-N-(2-(piperazin-1-yl)ethyl)dodecan-1-amine] |  |  | Total flux (Luc expression), comparison in words over the time points of the table named [1]: lowest total flux |
|  | CCCCCCCCCCCCN(CCCCCCCCCCCC)CCN1CCN(Cc2ccc(OC)cc2)CC1 [Compound 19-5, N-Dodecyl-N-(2-(4-(4-methoxybenzyl)piperazin-1-yl)ethyl)dodecan-1-amine] |  |  | Total flux (Luc expression), comparison in words over the time points of the table named [1]: next highest flux |
| 0.170 | CCCCCCCCCCCCN(CCCCCCCCCCCC)CC(=O)N1CCN(C(=O)CN(CCCCCCCCCCCC)CCN(CCCCCCCCC)CCCCCCCCC)CC1 [Compound 9, 2-(Didodecylamino)-1-(4-(N-(2-(dinonylamino)ethyl)-N-dodecylglycyl)piperazin-1-yl)ethan-1-one] | 0.73 | 0.58 | Size (nm) ([5]; Table 1, lipid:DOPE:Chol:PEG-DMG 40:20:38.5:1.5, Luc mRNA, MC3 standard formulation): 78.0 nm |
| 0.110 | CCCCCCCCCCCCN(CCCCCCCCCCCC)CC(=O)N1CCN(C(=O)CN(CCCCCCCCC)CCN(CCCCCCCCC)CCCCCCCCC)CC1 [Compound 8, 2-(Didodecylamino)-1-(4-(N-(2-(dinonylamino)ethyl)-N-nonylglycyl)piperazin-1-yl)ethan-1-one] | 2.33 | 3.74 |  |
|  | CCCCCCCCCN(CCCOC(=O)CCCCC)CCCC1CCN(C(=O)CCN(CCCCCCCCC)CCN(CCCCCCCCC)CCCCCCCCC)CC1 [Compound 87, 3-((3-(1-(3-((2-(Dinonylamino)ethyl)(nonyl)amino)propanoyl)piperidin-4-yl)propyl)(nonyl)amino)propyl hexanoate] |  |  | Lipid/MC3 AUC [6]: 0.80 |
